Assays:
[1] = target: c-Cbl (Homo sapiens (Human), UniProt P22681); assay: C-Cbl LCK Ub TR-FRET assay (c-cbl Lck HTRF); type: biochemical; conditions: for (fold-selectivity): C-cbl Lck HTRF IC50 relative to Cbl-b Lck HTRF IC50
Method in brief: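 Signal is read once the detection mix has stood 20 min at ambient temperature. Curves are anchored by DMSO as maximum and by omission of LCK as minimum.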

[2] = target: Cbl-b (Homo sapiens (Human), UniProt Q13191); assay: Cbl-b LCK Ub TR-FRET assay (Cbl-b Lck HTRF); type: biochemical
Method in brief: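 TR-FRET (340 nm excitation, 615/665 nm emission) read after adding HA-ubiquitin–UBE2D2 thioester, anti-HA-D2 and streptavidin-Eu. Beforehand, compounds incubated 60 min with biotinylated Cbl-b, then 90 min with His-LCK and ATP (1 mM in 2× mix); IC50 from 10 concentrations, DMSO high and no-LCK low controls.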

Sequence of Cbl-b (Q13191 40-426): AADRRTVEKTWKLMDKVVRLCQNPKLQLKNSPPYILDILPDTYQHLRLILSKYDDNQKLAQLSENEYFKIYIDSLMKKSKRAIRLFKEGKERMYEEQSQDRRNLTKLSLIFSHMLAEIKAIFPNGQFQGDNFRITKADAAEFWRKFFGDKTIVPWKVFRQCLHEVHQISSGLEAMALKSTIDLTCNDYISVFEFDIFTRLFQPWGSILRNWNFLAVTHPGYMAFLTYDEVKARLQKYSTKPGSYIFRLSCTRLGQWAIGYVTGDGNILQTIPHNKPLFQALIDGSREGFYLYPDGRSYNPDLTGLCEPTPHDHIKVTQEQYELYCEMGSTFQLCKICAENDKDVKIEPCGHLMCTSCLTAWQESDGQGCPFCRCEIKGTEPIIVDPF
Sequence of c-Cbl (P22681 47-435): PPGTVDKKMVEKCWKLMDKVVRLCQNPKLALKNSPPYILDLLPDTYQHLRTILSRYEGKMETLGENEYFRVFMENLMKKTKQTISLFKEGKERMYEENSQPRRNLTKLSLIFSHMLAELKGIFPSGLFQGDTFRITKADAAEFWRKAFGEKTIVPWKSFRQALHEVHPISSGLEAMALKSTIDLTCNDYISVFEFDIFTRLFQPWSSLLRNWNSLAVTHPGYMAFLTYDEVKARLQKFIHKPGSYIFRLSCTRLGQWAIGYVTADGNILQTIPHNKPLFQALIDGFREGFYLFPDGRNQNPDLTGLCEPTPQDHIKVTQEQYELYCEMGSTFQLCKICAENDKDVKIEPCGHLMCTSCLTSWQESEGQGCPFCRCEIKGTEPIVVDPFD

| Compound | IC50 [1] | (fold-selectivity) [1] | IC50 [2] |
| --- | --- | --- | --- |
| Cc1cnnn1CC1(c2cccc(N3Cc4c(cc(CNC5(C)CCC5)cc4C(F)(F)F)C3=O)c2)COC1 [Compound 243, 2-(3-(3-((5-methyl-1H-1,2,3-triazol-1-yl)methyl)oxetan-3-yl)-phenyl)-6-(((1-methylcyclobutyl)amino)methyl)-4-(trifluoromethyl)isoindolin-1-one] | 0.047 µM | (1.6x) | 0.029 µM |
| CCCNCc1cc2c(c(C(F)(F)F)c1)CN(c1cc(NC(C)C)cc(C3(Cc4nncn4C)CCC3)c1)C2=O [Compound 456, 2-(3-(isopropylamino)-5-(1-((4-methyl-4H-1,2,4-triazol-3-yl)methyl)cyclobutyl)phenyl)-6-((propylamino)methyl)-4-(trifluoromethyl)isoindolin-1-one] | 0.0076 µM | (0.56x) | 0.013 µM |
| Cn1cnnc1C[C@]1(c2cccc(N3Cc4c(cc(CNC5(C)CCC5)cc4C(F)(F)F)C3=O)c2)C[C@@H](C#N)C1 [Compound 468, (1s,3s)-3-((4-methyl-4H-1,2,4-triazol-3-yl)methyl)-3-(3-(6-(((1 - methylcyclobutyl)amino)methyl)-1-oxo-4-(trifluoromethyl)isoindolin-2-yl)phenyl)cyclobutanecarbonitrile] | 0.015 µM | (1.0x) | 0.015 µM |
| Cn1cnnc1CC1(c2cccc(N3Cc4c(cc(CN5CC[C@@H](CCl)C5)cc4C(F)(F)F)C3=O)c2)COC1 [Compound 101, (R)-6-((3-(chloromethyl)pyrrolidin-1-yl)methyl)-2-(3-(3-((4-methyl-4H-1,2,4-triazol-3-yl)methyl)oxetan-3-yl)phenyl)-4-(trifluoromethyl)isoindolin-1-one] | 0.023 µM | 1.2x | 0.018 µM |
| CN(CCC(C)(C)O)Cc1cc2c(c(C(F)(F)F)c1)CN(c1cccc(C3([C@H](F)c4nncn4C)COC3)c1)C2=O [Compound 158, (S)-2-(3-(3-(fluoro(4-methyl-4H-1,2,4-triazol-3-yl)methyl)oxetan-3-yl)phenyl)-6-(((3-hydroxy-3-methylbutyl)(methyl)amino)methyl)-4-(trifluoromethyl)isoindolin-1-one] | 0.28 µM | 1.0x | 0.27 µM |
| Cn1cnnc1C(F)(F)C1(c2cccc(N3Cc4c(cc(CN5CC(C)(O)C5)cc4C(F)(F)F)C3=O)c2)CC(F)(F)C1 [Compound 383, 2-(3-(1-(difluoro(4-methyl-4H-1,2,4-triazol-3-yl)methyl)-3,3-difluorocyclobutyl)phenyl)-6-((3-hydroxy-3-methylazetidin-1-yl)methyl)-4-(trifluoromethyl)isoindolin-1-one] | 0.38 µM | (0.77x) | 0.49 µM |
| Cn1cnnc1[C@H](F)C1(c2cccc(N3Cc4c(cc(CN5CC6(CCC6)C5)cc4C(F)(F)F)C3=O)c2)COC1 [Compound 165, (R)-6-(2-azaspiro[3.3]heptan-2-ylmethyl)-2-(3-(3-(fluoro(4-methyl-4H-1,2,4-triazol-3-yl)methyl)oxetan-3-yl)phenyl)-4-(trifluoromethyl)isoindolin-1-one] | 0.073 µM | 2.1x | 0.035 µM |
| Cn1cnnc1C[C@]1(c2cccc(N3Cc4c(cccc4C(F)(F)F)C3=O)c2)C[C@@H](F)C1 [Compound 99, 2-(3-((1s,3r)-3-fluoro-1-((4-methyl-4H-1,2,4-triazol-3-yl)methyl)cyclobutyl)phenyl)-4-(trifluoromethyl)isoindolin-1-one] | 0.34 µM | 2.0x | 0.17 µM |
| CN1CCN(Cc2cc3c(c(C(F)(F)F)c2)CN(c2cccc(C4(Cc5nncn5C)CC(F)(F)C4)c2)C3=O)C(=O)C1 [Compound 444, 2-(3-(3,3-difluoro-1-((4-methyl-4H-1,2,4-triazol-3-yl)methyl)cyclobutyl)phenyl)-6-((4-methyl-2-oxopiperazin-1-yl)methyl)-4-(trifluoromethyl)isoindolin-1-one] | 0.18 µM | (1.1x) | 0.17 µM |
| Cn1cnnc1CC1(c2cccc(N3Cc4c(cc(CNCC5COC5)cc4C(F)(F)F)C3=O)c2)CC(F)(F)C1 [Compound 368, 2-(3-(3,3-difluoro-1-((4-methyl-4H-1,2,4-triazol-3-yl)methyl)cyclobutyl)phenyl)-6-(((oxetan-3-ylmethyl)amino)methyl)-4-(trifluoromethyl)isoindolin-1-one] | 0.014 µM | (0.72x) | 0.02 µM |
| CCNc1cc(N2Cc3c(cc(CNC4(C)CCC4)cc3C(F)(F)F)C2=O)cc(C2(Cc3nncn3C)CC(F)(F)C2)c1 [Compound 466, 2-(3-(3,3-difluoro-1-((4-methyl-4H-1,2,4-triazol-3-yl)methyl)cyclobutyl)-5-(ethylamino)phenyl)-6-(((1-methylcyclobutyl)amino)methyl)-4-(trifluoromethyl)isoindolin-1-one] | 0.0061 µM | (0.96x) | 0.0064 µM |
| CC(C)[C@H]1CN(C)CCN1Cc1cc2c(c(C(F)(F)F)c1)CN(c1cc(C3(Cc4nncn4C)CC(F)(F)C3)cc(N(C)C)n1)C2=O [Compound 280, (S)-2-(4-(3,3-difluoro-1-((4-methyl-4H-1,2,4-triazol-3-yl)methyl)cyclobutyl)-6-(dimethylamino)pyridin-2-yl)-6-((2-isopropyl-4-methylpiperazin-1-yl)methyl)-4-(trifluoromethyl)isoindolin-1-one] | 0.011 µM | (0.96x) | 0.012 µM |
| CO[C@H]1CCN(Cc2cc3c(c(C(F)(F)F)c2)CN(c2cccc(C4([C@H](F)c5nncn5C)COC4)c2)C3=O)C1 [Compound 132, 2-(3-(3-((S)-fluoro(4-methyl-4H-1,2,4-triazol-3-yl)methyl)oxetan-3-yl)phenyl)-6-(((S)-3-methoxypyrrolidin-1-yl)methyl)-4-(trifluoromethyl)isoindolin-1-one] | 0.47 µM | 2.1x | 0.23 µM |
| Cn1cnnc1CC1(c2cc(NCCCN3CCOCC3)nc(N3Cc4c(cc(CNC5(C)CCC5)cc4C(F)(F)F)C3=O)c2)CCC1 [Compound 303, 2-(4-(1-((4-methyl-4H-1,2,4-triazol-3-yl)methyl)cyclobutyl)-6-((3-morpholinopropyl)amino)pyridin-2-yl)-6-(((1-methylcyclobutyl)amino)methyl)-4-(trifluoromethyl)isoindolin-1-one] | 0.19 µM | (0.59x) | 0.31 µM |
| Cn1cnnc1C(F)(F)C1(c2cccc(N3Cc4c(cc(CNC5(C)CCC5)cc4C(F)(F)F)C3=O)c2)CCC1 [Compound 235, 2-(3-(1-(difluoro(4-methyl-4H-1,2,4-triazol-3-yl)methyl)cyclobutyl)phenyl)-6-(((1-methylcyclobutyl)amino)methyl)-4-(trifluoro-methyl)isoindolin-1-one] | 0.021 µM | (1.4x) | 0.015 µM |
| COC[C@H]1CCCN1Cc1cc2c(c(C(F)(F)F)c1)CN(c1cccc(C3([C@@H](F)c4nncn4C)COC3)c1)C2=O [Compound 155, 2-(3-(3-((R)-fluoro(4-methyl-4H-1,2,4-triazol-3-yl)methyl)oxetan-3-yl)phenyl)-6-(((R)-2-(methoxymethyl)pyrrolidin-1-yl)methyl)-4-(trifluoromethyl)isoindolin-1-one] | 0.24 µM | 1.8x | 0.13 µM |
| Cn1cnnc1CC1(c2cccc(N3Cc4c(cc([C@@H](N)C5CC5)cc4C(F)(F)F)C3=O)c2)CC(F)(F)C1 [Compound 453, (S)-6-(amino(cyclopropyl)methyl)-2-(3-(3,3-difluoro-1-((4-methyl-4H-1,2,4-triazol-3-yl)methyl)cyclobutyl)phenyl)-4-(trifluoromethyl)isoindolin-1-one] | 0.018 µM | (1.4x) | 0.014 µM |
| CC(C)[C@H]1CN(CC(F)(F)F)CCN1Cc1cc2c(c(C(F)(F)F)c1)CN(c1cccc(C3([C@@H](F)c4nncn4C)COC3)c1)C2=O [Compound 202, 2-(3-(3-((R)-fluoro(4-methyl-4H-1,2,4-triazol-3-yl)methyl)oxetan-3-yl)phenyl)-6-(((S)-2-isopropyl-4-(2,2,2-trifluoroethyl)piperazin-1-yl)methyl)-4-(trifluoromethyl)isoindolin-1-one] | 0.4 µM | 2.6x | 0.15 µM |
| CSc1cc(C2(Cc3nncn3C)CCC2)cc(N2Cc3c(cc(CNC4(C)CCC4)cc3C(F)(F)F)C2=O)n1 [Compound 251, 2-(4-(1-((4-methyl-4H-1,2,4-triazol-3-yl)methyl)cyclobutyl)-6-(methylthio)pyridin-2-yl)-6-(((1-methylcyclobutyl)amino)methyl)-4-(trifluoromethyl)isoindolin-1-one] | 0.0084 µM | (0.76x) | 0.011 µM |
| Cn1cnnc1C(F)(F)C1(c2cccc(N3Cc4c(cccc4C(F)(F)F)C3=O)c2)CC1 [Compound 49, 2-(3-(1-(difluoro(4-methyl-4H-1,2,4-triazol-3-yl)methyl)-cyclopropyl)phenyl)-4-(trifluoromethyl)isoindolin-1-one] | 2.8 µM | 2.0x | 1.4 µM |
| CC[C@@H]1CCC[C@H](c2cc3c(c(C(F)(F)F)c2)CN(c2cccc(C4(Cc5nncn5C)CC(F)(F)C4)c2)C3=O)N1 [Compound 274, 2-(3-(3,3-difluoro-1-((4-methyl-4H-1,2,4-triazol-3-yl)methyl)cyclobutyl)phenyl)-6-((2R,6R)-6-ethylpiperidin-2-yl)-4-(trifluoromethyl)isoindolin-1-one] | 0.22 µM | (1.6x) | 0.14 µM |

Reference: patent publication US20250230147A1, “LACTAMS AS CBL-B INHIBITORS” (Genentech, Inc., priority 2021, published 2025)
